Paper PMC5663397, “A composite docking approach for the identification and characterization of ectosteric inhibitors of cathepsin K” (PLoS ONE, 2017)
Where “and” joins values, the source holds several entries; their conditions need not be identical. Identical values can stand only once. Entries after “also recorded” stand apart in the source; their conditions may differ. Counter-ions that a name gives are not always drawn. Like-named read-outs stand apart in the source and are kept apart here.

Key:
CatK [1] = target: T1, CatK (Homo sapiens, UniProt P43235); test: CatK collagenase assay (type I collagen degradation, SDS-PAGE); type: biochemical
T1 construct: made in house; host or cells: Pichia pastoris
T1 sequence (P43235 115-329): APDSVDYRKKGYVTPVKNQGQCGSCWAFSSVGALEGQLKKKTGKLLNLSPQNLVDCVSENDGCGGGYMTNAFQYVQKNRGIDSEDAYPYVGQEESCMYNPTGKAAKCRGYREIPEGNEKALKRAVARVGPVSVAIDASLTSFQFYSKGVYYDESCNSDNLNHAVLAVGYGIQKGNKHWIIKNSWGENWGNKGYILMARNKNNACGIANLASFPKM
Method: The collagenase inhibitory activities of all identified compounds were measured using a collagen degradation assay. Soluble bovine type I collagen (0.6 mg/mL) was incubated with 400 nM recombinant human CatK, in the presence or absence of 200 nM chondroitin 4-sulfate (C4-S) in 100 mM sodium acetate buffer, pH 5.5, containing 2.5 mM dithiothreitol (DTT) (Sigma-Aldrich Canada, Oakville, Ontario, Canada) and 2.5 mM ethylenediametetraacetate (EDTA) (Sigma-Aldrich). In the experiments involving detergent to minimize inhibitor aggregation, 0.001% or 0.005% Triton X-100 was added to the buffer with the inhibitor. The recombinant human CatK was expressed in Pichia pastoris and purified as previously described. Selected compounds identified by molecular docking were ordered from the National Cancer Institute through the Developmental Therapeutics Program (Rockville, MD). All compounds were dissolved in DMSO as a 20 or […] stock. […] After incubation at 28°C for 4 hours, 1 μM of E-64 was added to block the residual activity of CatK.
(§1) Digestion with MMP-1 was performed in 50 mM Tris-HCl, pH 7.4, containing 200 mM NaCl and 5 mM CaCl2 at 28°C for 4 h. Reactions were stopped by adding 25 mM EDTA as previously described. Samples were analyzed using 10% SDS-PAGE gels and stained with Coomassie. The resulting bands of α-collagen chains were quantitatively assessed using ImageJ (Version 1.5) and IC50 graphs were plotted using GraphPad Prism (GraphPad Software, Version 5.0, La Jolla California USA).

CatK [2] = target: T1, CatK; test: Z-Phe-Arg-MCA cleavage assay with CatK; type: biochemical; conditions: 100 μM inhibitor, 5 nM CatK, 5 μM substrate, pH 5.5
Method: (§2) The enzymatic activity of CatK was monitored by measuring the rate of release of the fluorogenic group, amino-methyl coumarin at an excitation wavelength of 380 nm and an emission wavelength of 450 nm using a Molecular Devices SpectraMax Gemini spectrofluorometer. Inhibitors were added prior to measurement of enzyme activity. The assays were performed at 25°C at a fixed enzyme concentrations (5 nM) and substrate concentration (5 μM) in 100 mM sodium acetate buffer, pH 5.5, containing 2.5 mM DTT and 2.5 mM EDTA. Z-Phe-Arg-MCA hydrolysis with trypsin was carried out in 50 mM Tris-HCl, pH 8.8 at 10 nM enzyme concentration.

MMP-1 [3] = target: T2, MMP-1 (Homo sapiens, UniProt P03956); test: Collagen digestion with MMP-1; type: biochemical; conditions: 50 μM inhibitor, 400 nM MMP-1
T2 sequence (P03956 100-469): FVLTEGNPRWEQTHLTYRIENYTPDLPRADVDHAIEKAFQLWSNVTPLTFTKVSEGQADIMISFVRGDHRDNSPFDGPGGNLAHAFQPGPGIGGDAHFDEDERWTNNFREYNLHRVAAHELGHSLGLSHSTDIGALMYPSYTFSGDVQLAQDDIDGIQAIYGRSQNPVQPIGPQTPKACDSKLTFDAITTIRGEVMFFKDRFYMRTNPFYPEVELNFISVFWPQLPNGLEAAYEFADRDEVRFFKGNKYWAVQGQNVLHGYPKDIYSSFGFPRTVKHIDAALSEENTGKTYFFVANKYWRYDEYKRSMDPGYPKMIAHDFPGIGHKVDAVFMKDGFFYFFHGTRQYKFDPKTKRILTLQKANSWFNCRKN
Method: as §1

MMP-1 [4] = target: T2, MMP-1; test: Gelatin degradation assay with MMP-1; type: biochemical; conditions: 50 μM inhibitor, 10 nM MMP-1
Method: Gelatin (0.6 mg/mL) degradation assays were performed in the same manner as the collagen degradation experiments with 10 nM enzyme and were incubated at 37°C for one hour at the appropriate pH values for the individual proteases (CatK, pH 5.5; MMP-1, pH 7.4; trypsin, pH 8.8).

human osteoclasts [5] = test: Human osteoclast bone resorption assay on bone slices; type: cell-based; conditions: for IC50: human osteoclasts on bone slices, read-out: IC50 for inhibition of trench eroded surface per bone surface (bone resorption)
Method: (§3) Osteoclasts were generated from mononuclear cells isolated from human bone marrow tissue (Lonza, Walkersville, MD). The bone marrow cells were centrifuged at 400 g for 5 min and the pellet was re-suspended in 10 mL α-MEM (α-Minimal Essential Media) and layered on 10 ml Ficoll-Plaque media solution. After centrifugation at 500 g for 30 min, the white interface containing the monocytes was harvested and washed twice with α-MEM. Cells were cultured in α-MEM containing 10% FBS and 25 ng/mL M-CSF for 24 hours and then cultured in 25 ng/mL RANKL and 25 ng/mL M-CSF for 7 days. Differentiated osteoclasts (100,000 cells per slice) were then seeded on each bone slice (5.5 mm diameter and 0.4 mm thickness; self-made) in the presence or absence of inhibitors and incubated for 72 hours at 5% CO2 and 37°C with the DMSO concentration at 0.1%. The inhibitor concentration range tested varied between 50 nM to 3 μM.
(§4) To compare the effects of the compounds on cell survival, the metabolic activity of osteoclasts was determined using the CellTiter-Blue Viability Assay (Promega, Madison, WI, USA). Bone slices from each condition (inhibitor-treated and control groups) were fixed in 4% formaldehyde and subsequently stained for tartrate-resistant acid phosphatase (TRAcP) activity (Acid Phosphatase, Leukocyte (TRAP) Kit; Sigma-Aldrich). Aliquots from cell culture media were used to determine the CTx-I concentration (MyBiosource ELISA kit, San Diego, CA). CTx-I is a CatK-specific C-terminal cleavage product of triple helical type I collagen. The total number of osteoclasts per bone slice was determined after TRAcP staining. Cells with ≥2 nuclei were counted as osteoclasts. After 72 h, bone slices from each condition were incubated in filtered water for cell lysis and cells were removed using a cotton stick. Subsequently the resorption cavities were stained with toluidine blue and observed by light microscopy. The number of resorption events and eroded bone surface area were determined as previously described. All light microscopic analyses were performed using a Nikon Eclipse LV100 microscope and a Nikon Eclipse Ci microscope.

human osteoclasts [6] = test: Osteoclast survival: CellTiter-Blue metabolic activity and osteoclast count after TRAcP staining; type: cell-based
Method: as §3, §4

Yeast = system: Yeast; design: method as in earlier work; conditions: cited from earlier work
human osteoclasts [7] = conditions: cited from earlier work
ovariectomiced mice = system: ovariectomiced mice; design: method as in PMID 28745432; conditions: cited from earlier work
trypsin = test: Z-Phe-Arg-MCA hydrolysis with trypsin; type: biochemical; conditions: 50 μM (5,000-times molar excess)
Method: as §2, with “Evaluation of a potential active site inhibition of the compounds was performed using the fluorogenic Benzyloxycarbonyl-Phe-Arg-7-amido-4-methylcoumarin (Z-Phe-Arg-MCA) substrate (Bachem Americas, Inc, Torrance, California, USA) as previously described. The enzymatic” for “The enzymatic”

[8] = 400 nM CatK, soluble bovine type I collagen 0.6 mg/mL, pH 5.5, 28°C, 4 h, read-out: Collagenase IC50
[9] = 1 μM inhibitor, 72 h, versus untreated

Structure (SMILES): CCc1cc2nc3c(=O)[nH]c(=O)nc-3n(CCN(CCO)CCO)c2cc1CC [compound 1, 10-[2-[bis(2-hydroxyethyl)amino]ethyl]-7,8-diethylbenzo[γ]pteridine-2,4-dione]
- IC50 (CatK [1]; [8]): < 20 µM and 4.7 µM and ~5 µM
- IC50 (CatK [1]; Collagenase IC50 with 0.005% Triton X-100, in the presence of detergent, 0.005% Triton X-100): 5.1 ± 1 µM
- Collagenase IC50 with 0.005% Triton X-100 (CatK [1]; in the presence of detergent, 0.005% Triton X-100): not significantly different
- inhibition at 100 µM (CatK [2]): 9.5 ± 2.6%
- inhibitory activity towards the collagenase activity of MMP-1 (MMP-1 [3]): no inhibitory activity; also recorded: did not show inhibition
- inhibitory activity for the gelatinase activity of MMP-1 (MMP-1 [4]): no inhibitory activity; also recorded: did not show inhibition
- Number of trenches (human osteoclasts [5]; [9]): significant reduction
- percentage of eroded surface area / total eroded surface (human osteoclasts [5]; [9]): very effective in reducing the total eroded surface; also recorded: significant reduction
- IC50 (human osteoclasts [5]; Homo sapiens, Osteoclast, 72 h, 72 h): ~0.3 µM
- IC50 (human osteoclasts [5]; 72 h): 0.312 ± 0.063 µM
- overall potency, times lower than odanacatib (human osteoclasts [5]; osteoclast resorption assay, versus odanacatib): 15–20 times
- Metabolic activity of osteoclasts (human osteoclasts [6]; CellTiter-Blue, compared with untreated cells): no significant differences
- number of osteoclasts (human osteoclasts [6]; TRAcP staining, compared with untreated cells): no significant differences
- cell toxicity (human osteoclasts [6]; osteoclast bone resorption assays): no cell toxicity effects
- activity in NCI Yeast Anticancer Drug Screen (Yeast): active

Structure (SMILES): CSCCC(NCC(N)Cc1ccc2ccccc2c1)C(=O)NCc1cccc(C(=O)NC(CNC(CC(C)C)C(=O)O)Cc2ccccc2)c1 (stereo not shown) [compound 719315]
- IC50 (CatK [1]; [8]): 88 µM

Structure (SMILES): CC1CN=C(c2cccc(NC(=O)c3ccc(C(=O)Nc4cccc(C5=NCC(C)N5)c4)c(N)c3)c2)N1 (stereo not shown) [compound 80116]
- IC50 (CatK [1]; [8]): 89 µM

Structure (SMILES): Cc1c(S(=O)(=O)O)oc2c1C(=O)C(=O)c1c-2ccc2c1CCCC2(C)C [tanshinone IIA sulfonate]
- IC50 (human osteoclasts [7]; read-out: IC50 in osteoclast resorption assay): 0.24 µM
- efficacy in ovariectomiced mice (ovariectomiced mice): showed efficacy

Structure (SMILES): CCN(CC)CCNc1ccc2ncn3c4ccccc4c(=O)c1c23 [compound 5, 5-{[2-(diethylamino)ethyl]amino}-6H-imidazo[4,5,1-de]acridin-6-one hydrochloride (1:1)]
- IC50 (CatK [1]; [8]): < 20 µM and 13 µM
- inhibition at 100 µM (CatK [2]): 3.7 ± 0.7%

Structure (SMILES): CCc1nc2ccc(NCCN(C)C)c3c(=O)c4ccccc4n1c23 [compound 4, 5-(2-(dimethylamino)ethylamino)-1-ethyl-6H-imidazo[4,5,1-de]acridin-6-one]
- IC50 (CatK [1]; [8]): < 20 µM and 9.9 µM
- inhibition at 100 µM (CatK [2]): 2.3 ± 0.9%

Structure (SMILES): Cc1c2c(c(O)c3c(O)cccc13)C(=O)C1(O)C(=O)C(C(N)=O)C(O)C(N(C)C)C1C2 (stereo not shown) [compound 6, 4-(dimethylamino)-3,10,11,12a-tetrahydroxy-6-methyl-1,12-dioxo-3,4,4a,5-tetrahydro-2H-tetracene-2-carboxamide]
- IC50 (CatK [1]; [8]): ~35 µM and 34.8 µM
- inhibition at 100 µM (CatK [2]): 11.5 ± 2.6%
- inhibition of Z-Phe-Arg-MCA degradation by trypsin (trypsin): 60%

Structure (SMILES): O=C(Nc1cccc(C(=O)Nc2cccc(C3=NCCN3)c2)c1)Nc1cccc(C(=O)Nc2cccc(C3=NCCN3)c2)c1 [compound 8, N-[3-(4,5-dihydro-1H-imidazol-2-yl)phenyl]-3-[[3-[[3-(4,5-dihydro-1H-imidazol-2-yl)phenyl]carbamoyl]phenyl]carbamoylamino]benzamide hydrochloride]
- IC50 (CatK [1]; [8]): 12.8 µM and < 20 µM
- inhibition at 100 µM (CatK [2]): 7.2 ± 3.6%

Structure (SMILES): CCN(CC)CC1=C/C(=N/NC2=C3C=CC(=O)C(NNc4ccc(O)c(CN(CC)CC)c4)=C3C=CC2=O)C=CC1=O.Cl [compound 9, 1-[2-[3-(diethylaminomethyl)-4-hydroxyphenyl]hydrazinyl]-5-[(2E)-2-[3-(diethylaminomethyl)-4-oxocyclohexa-2,5-dien-1-ylidene]hydrazinyl]naphthalene-2,6-dione hydrochloride]
- IC50 (CatK [1]; [8]): < 20 µM
- inhibition at 100 µM (CatK [2]): 3.2 ± 0.8%
- activity in NCI Yeast Anticancer Drug Screen (Yeast): active

Structure (SMILES): CN(C)CCNc1ccc2ncn3c4ccc(O)cc4c(=O)c1c23 [compound 2, 2-((8-hydroxy-6-oxo-6H-imidazo[4,5,1-de]acridin-5-yl)amino)-N,N-dimethylethanaminium]
- IC50 (CatK [1]; [8]): < 20 µM and 7.6 µM
- inhibition at 100 µM (CatK [2]): 6.1 ± 3.9%

Structure (SMILES): CC(C)(F)C[C@H](N[C@@H](c1ccc(-c2ccc(S(C)(=O)=O)cc2)cc1)C(F)(F)F)C(=O)NC1(C#N)CC1 [odanacatib]
- IC50 (human osteoclasts [7]; read-out: IC50 for human-osteoclast-mediated bone resorption): 0.0146 µM
